Read-outs that look alike come from different tables or passages of the source.
Target: T1, human GPBAR1 receptor (Homo sapiens, UniProt Q8TDU6)
T1 construct: expressed in transfected cells
T1 sequence (Q8TDU6 1-330): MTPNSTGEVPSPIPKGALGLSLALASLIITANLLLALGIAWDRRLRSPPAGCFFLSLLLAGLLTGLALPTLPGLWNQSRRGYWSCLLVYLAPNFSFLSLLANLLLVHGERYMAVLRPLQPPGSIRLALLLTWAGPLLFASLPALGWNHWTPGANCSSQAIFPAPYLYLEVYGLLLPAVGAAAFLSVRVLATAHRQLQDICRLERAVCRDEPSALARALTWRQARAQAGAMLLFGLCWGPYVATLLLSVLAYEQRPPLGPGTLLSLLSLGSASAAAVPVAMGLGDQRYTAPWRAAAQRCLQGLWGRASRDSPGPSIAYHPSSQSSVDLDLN
Experiment: functional cAMP assay in CHO-dhfr(minus) cells expressing human GPBAR1 receptors
Assay type: cell-based
Conditions: 30 min at 30° C.
How it was run: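 Agonist cAMP read-out: stable GPBAR1 CHO-dhfr− clone, 30 min compound exposure at 30° C following 30 min IBMX (1 mM) preincubation in Krebs Ringer bicarbonate. Time-resolved energy-transfer detection gives EC50; parental CHO cells serve as counter-screen.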

[1] = human EC50, functional cAMP assay

| Compound | EC50 [1] | EC50 (functional cAMP assay, read-out: human EC50) |
| --- | --- | --- |
| Cc1ccccc1C(C/C(=N\O)c1ccc(=O)n(C)c1)c1ccc(-c2ccccc2C(=O)O)cc1F (stereo not shown) [Example 236, 3′-Fluoro-4′-[3-[(E)-hydroxyimino]-3-(1-methyl-6-oxo-1,6-dihydro-pyridin-3-yl)-1-o-tolyl-propyl]-biphenyl-2-carboxylic acid] | 1200 nM |  |
| CS(=O)(=O)c1cccc(-c2cccc(C(C/C(=N\O)c3ccncc3)c3ccccc3)c2)c1 (stereo not shown) [Example 23, (E)-3-(3′-Methanesulfonyl-biphenyl-3-yl)-3-phenyl-1-pyridin-4-yl-propan-1-one oxime] | 492 nM |  |
| O/N=C(\CC(c1ccccc1)c1ccc(Br)cc1)c1ccncc1 (stereo not shown) [Example 5, (E)-3-(4-Bromo-phenyl)-3-phenyl-1-pyridin-4-yl-propan-1-one oxime] |  | 19 nM |
| Cc1ccccc1C(CC(=NO)c1ccncc1)c1cccc(-c2ccc(S(C)(=O)=O)cc2)c1 (racemic) [Example 29, 3-(4′-Methanesulfonyl-biphenyl-3-yl)-1-pyridin-4-yl-3-o-tolyl-propan-1-one oxime] | 400 nM |  |
| Cc1ccccc1C(C/C(=N\O)c1cc(Cl)nc(Cl)c1)c1ccc(Br)cc1 (stereo not shown) [Example 120, (E)-3-(4-Bromo-phenyl)-1-(2,6-dichloro-pyridin-4-yl)-3-o-tolyl-propan-1-one oxime] | 184 nM |  |
| Cc1ccccc1[C@H](C/C(Cc1ccncc1)=N/O)c1ccc(Br)cc1 [Example 262, (Z,R)-4-(4-bromophenyl)-1-(pyridin-4-yl)-4-o-tolylbutan-2-one oxime] | 278 nM |  |
| Cn1cc(/C(CC(c2ccc(-c3ccc(C(=O)O)cc3)cc2)c2ccccc2F)=N/O)ccc1=O (stereo not shown) [Example 244, (E)-4′-(1-(2-Fluorophenyl)-3-(hydroxyimino)-3-(1-methyl-6-oxo-1,6-dihydropyridin-3-yl)propyl)biphenyl-4-carboxylic acid] | 260 nM |  |
| Cc1ccccc1C(C/C(=N\O)c1ccc(=O)n(C)c1)c1ccc(OCC(=O)O)cc1F (stereo not shown) [Example 221, {3-Fluoro-4-[3-[(E)-hydroxyimino]-3-(1-methyl-6-oxo-1,6-dihydro-pyridin-3-yl)-1-o-tolyl-propyl]-phenoxy}-acetic acid] | 4080 nM |  |
| CC(=O)Nc1cccc(C(C/C(=N\O)c2ccc(=O)n(C)c2)c2ccc(Cl)cc2F)c1 (stereo not shown) [Example 319, (E)-N-(3-(1-(4-Chloro-2-fluorophenyl)-3-(hydroxyimino)-3-(1-methyl-6-oxo-1,6-dihydropyridin-3-yl)propyl)phenyl)acetamide] | 2520 nM |  |
| Cc1cc(/C(CC(c2cccc(-c3ccc(C(=O)O)cc3)c2)c2ccccc2C)=N/O)ccn1 (stereo not shown) [Example 103, (E)-3′-[3-[Hydroxyimino]-3-(2-methyl-pyridin-4-yl)-1-o-tolyl-propyl]-biphenyl-4-carboxylic acid] | 589 nM |  |
| Cc1cc(/C(CC(c2cccc(Br)c2)c2ccccc2C)=N/O)cc(F)n1 (stereo not shown) [Example 122, (E)-3-(3-Bromo-phenyl)-1-(2-fluoro-6-methyl-pyridin-4-yl)-3-o-tolyl-propan-1-one oxime] | 201 nM |  |
| CN1CCC(N(C)C(=O)c2ccc(C(C/C(=N\O)c3ccc(=O)n(C)c3)c3ccccc3Cl)cc2F)CC1 (stereo not shown) [Example 218, (E)-4-(1-(2-Chlorophenyl)-3-(hydroxyimino)-3-(1-methyl-6-oxo-1,6-dihydropyridin-3-yl)propyl)-2-fluoro-N-methyl-N-(1-methylpiperidin-4-yl)benzamide] | 1640 nM |  |

Second part, the molecule after the results:

| EC50 [1] | EC50 (functional cAMP assay, read-out: human EC50) | Compound |
| --- | --- | --- |
| 104 nM |  | Cc1cc(Cl)ccc1C(C/C(=N\O)c1ccc(=O)n(C)c1)c1ccc(Oc2cccc(C(=O)O)c2)c(F)c1 (stereo not shown) [Example 325, 3-{4-[1-(4-Chloro-2-methyl-phenyl)-3-[(E)-hydroxyimino]-3-(1-methyl-6-oxo-1,6-dihydro-pyridin-3-yl)-propyl]-2-fluoro-phenoxy}-benzoic acid] |
| 9 nM |  | Cc1cc(F)ccc1[C@H](C/C(=N\O)c1ccc(=O)n(C)c1)c1ccc(-c2ccc(S(N)(=O)=O)cc2)cc1 (single isomer, unassigned) [Example 406, (−)-4′-[1-(4-Fluoro-2-methyl-phenyl)-3-[(E)-hydroxyimino]-3-(1-methyl-6-oxo-1,6-dihydro-pyridin-3-yl)-propyl]-biphenyl-4-sulfonic acid amide] |
| 2 nM |  | Cc1cc(/C(C[C@H](c2ccc(N3CCC(CO)CC3)cc2)c2ccccc2C)=N/O)ccn1 [Example 269, (E,R)-3-[4-(4-Hydroxymethyl-piperidin-1-yl)-phenyl]-1-(2-methyl-pyridin-4-yl)-3-o-tolyl-propan-1-one oxime] |
| 18 nM |  | Cc1cc(Cl)ccc1[C@H](C/C(=N\O)c1ccc(=O)n(C)c1)c1ccc(-c2ccc(S(N)(=O)=O)cc2)cc1 (single isomer, unassigned) [Example 413, (−)-4′-[1-(4-Chloro-2-methyl-phenyl)-3-[(E)-hydroxyimino]-3-(1-methyl-6-oxo-1,6-dihydro-pyridin-3-yl)-propyl]-biphenyl-4-sulfonic acid amide] |
| 49 nM |  | Cc1cc(F)ccc1C(C/C(=N\O)c1ccc(=O)n(C)c1)c1ccc(-c2ccc(NC(=O)CC(=O)O)cc2)cc1 (stereo not shown) [Example 400, N-{4′-[1-(4-Fluoro-2-methyl-phenyl)-3-[(E)-hydroxyimino]-3-(1-methyl-6-oxo-1,6-dihydro-pyridin-3-yl)-propyl]-biphenyl-4-yl}-malonamic acid] |
| 109 nM |  | Cc1cc(/C(CC(c2ccc(C(F)(F)F)cc2)c2ccc(F)cc2F)=N/O)ccn1 (stereo not shown) [Example 442, 3-(2,4-Difluoro-phenyl)-1-(2-methyl-pyridin-4-yl)-3-(4-trifluoromethyl-phenyl)-propan-1-one oxime] |
| 11 nM |  | Cn1cc(/C(CC(c2ccc(Br)cc2)c2ccc(F)cc2Cl)=N/O)ccc1=O (stereo not shown) [Example 410, (E)-5-(3-(4-bromophenyl)-3-(2-chloro-4-fluorophenyl)-1-(hydroxyimino)propyl)-1-methylpyridin-2(1H)-one] |
| 30 nM |  | Cc1cc(Cl)ccc1C(C/C(=N\O)c1ccc(=O)n(C)c1)c1ccc(-c2ccc(C(=O)NCC(=O)O)cc2)cc1 (single isomer, unassigned; (-)) [Example 255, (−)-({4′-[1-(4-Chloro-2-methyl-phenyl)-3-[(E)-hydroxyimino]-3-(1-methyl-6-oxo-1,6-dihydro-pyridin-3-yl)-propyl]-biphenyl-4-carbonyl}-amino)-acetic acid] |
| 132 nM |  | Cc1cc(C(CC(c2ccccc2)c2ccccc2)=NO)cc(C)n1 (racemic) [Example 67, 1-(2,6-Dimethyl-pyridin-4-yl)-3,3-diphenyl-propan-1-one oxime] |
| 117 nM |  | ON=C(CC(c1ccccc1)c1ccccc1)c1cc(Cl)ncc1F (racemic) [Example 55, 1-(2-Chloro-5-fluoro-pyridin-4-yl)-3,3-diphenyl-propan-1-one oxime] |
| 28 nM |  | Cc1ccccc1[C@H](C/C(Cc1ccncc1)=N\O)c1ccc(Br)cc1 [Example 261, (E,R)-4-(4-bromophenyl)-1-(pyridin-4-yl)-4-o-tolylbutan-2-one oxime] |
| 27 nM |  | Cc1cc(/C(CC(c2ccc(Br)cc2)c2cc(F)cc(F)c2)=N/O)ccn1 (stereo not shown) [Example 445, 3-(4-Bromo-phenyl)-3-(3,5-difluoro-phenyl)-1-(2-methyl-pyridin-4-yl)-propan-1-one oxime] |
| 7 nM |  | Cc1ccccc1[C@H](C/C(=N\O)c1ccc(=O)n(C)c1)c1ccc(C#N)cc1 [Example 498, (R,E)-4-(3-(Hydroxyimino)-3-(1-methyl-6-oxo-1,6-dihydropyridin-3-yl)-1-o-tolylpropyl)benzonitrile] |

— patent US8765730B2 (Hoffmann-La Roche Inc, priority 2010, dated 2014)
